Measurements taken from paper PMC10766536 (The Journal of Antibiotics, 2023).

Legend:
Sprague Dawley rats = assay: 2-week IV once-a-day toxicity study with 2-week recovery in Sprague Dawley rats
Procedure: (§1) A subset from each dose group was maintained for 14 days after the last dose to evaluate delayed toxicity and/or recovery. All animals were observed twice daily for mortality and signs of pain or distress. Detailed clinical observations, body weight measurements and food consumption were conducted weekly; post dose observations (30 min post dose) were conducted daily or as required. Clinical pathology evaluations (hematology, coagulation parameters, and serum chemistry) were performed using samples collected on the day of scheduled sacrifice (main and recovery). At the end of the 14-day dosing period, and at the end of the 14-day recovery period, necropsies were performed on all animals, selected organs were weighed, and tissues were examined macroscopically and microscopically. Toxicokinetic parameters were evaluated on Day 1 and 14.

[1] = Toxicokinetics in 2-week IV rat toxicity study; assay type: in vivo
Procedure: as §1

S. aureus NRS384 = assay: S. aureus broth killing (growth inhibition) assay; conditions: S. aureus NRS384, TSB, 24 h, OD600
From the text: To test the potency of rifamycin analogs of the disclosure in vitro, a broth growth inhibition assay was developed.

CYP 2C8 = CYP 2C8 (Homo sapiens, UniProt P10632); assay: CYP inhibition; conditions: read-out: CYP inhibition IC50; CYP 2C8, substrate Amodiaquine; ND = Not Detected
[2] = combination with vancomycin, end of treatment
[3] = end of treatment period, compound alone
[4] = males, combination with vancomycin (1 + 110 mg/kg/day), end of treatment, considered vancomycin-related

CYP 2C8, sequence (P10632 whole entry): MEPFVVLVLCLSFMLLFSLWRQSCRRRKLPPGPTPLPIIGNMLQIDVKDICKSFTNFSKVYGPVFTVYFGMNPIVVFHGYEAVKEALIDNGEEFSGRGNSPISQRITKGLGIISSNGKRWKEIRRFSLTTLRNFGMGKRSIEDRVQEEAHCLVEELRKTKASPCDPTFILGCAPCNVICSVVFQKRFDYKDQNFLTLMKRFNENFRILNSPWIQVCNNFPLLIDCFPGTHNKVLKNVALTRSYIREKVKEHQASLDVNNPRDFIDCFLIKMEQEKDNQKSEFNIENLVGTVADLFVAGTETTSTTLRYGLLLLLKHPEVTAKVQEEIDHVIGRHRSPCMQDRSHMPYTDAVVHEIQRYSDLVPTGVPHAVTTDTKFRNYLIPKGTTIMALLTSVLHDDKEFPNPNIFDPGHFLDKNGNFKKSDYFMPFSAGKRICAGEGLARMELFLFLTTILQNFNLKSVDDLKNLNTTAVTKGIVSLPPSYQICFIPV

Q: With `COC1C=COC2(C)Oc3c(C)c(O)c4c(=O)c(c5oc6cc(OCCN(C)C)ccc6nc-5c4c3C2=O)NC(=O)C(C)=CC=CC(C)C(O)C(C)C(O)C(C)C(OC(C)=O)C1C` (centres unmarked) [Compound 4] as the molecule, how does the albumin concentration (Sprague Dawley rats; [2]) read?
A: minimal decrease

Q: What about the glucose concentration (Sprague Dawley rats; [2]) of the same molecule?
A: minimal increase

Q: And the urea nitrogen (Sprague Dawley rats; [2])?
A: minimal increase

Q: What about the “dose with apparent minimal increase in alkaline phosphatase in males” value (Sprague Dawley rats; end of recovery period) of the same molecule?
A: ≥ 1 mg/kg/day

Q: And the “dose with increase in glucose” value (Sprague Dawley rats; end of recovery period)?
A: ≥ 0.1 mg/kg/day

Q: And the “dose with minimal to mild decreases in globulin in males” value (Sprague Dawley rats; end of recovery period)?
A: ≥ 0.1 mg/kg/day

Q: What about the “dose with minimal increases in phosphorus” value (Sprague Dawley rats; end of treatment period) of the same molecule?
A: ≥ 0.1 mg/kg/day

Q: And the “dose with minimal increases in reticulocyte counts” value (Sprague Dawley rats; end of treatment period)?
A: ≥ 0.1 mg/kg/day

Q: What about the “dose with minimal decrease in albumin concentration” value (Sprague Dawley rats; [3]) of the same molecule?
A: 10 mg/kg/day

Q: What about the “dose with minimal increase in glucose concentration” value (Sprague Dawley rats; [3]) of the same molecule?
A: 1 mg/kg/day

Q: And the neutrophils counts (Sprague Dawley rats; [4])?
A: mild decreases

Q: And the platelet counts (Sprague Dawley rats; [4])?
A: minimal increase

Q: And the “red cell mass parameters (red blood cells, hemoglobin, hematocrit)” value (Sprague Dawley rats; [4])?
A: minimal decreases

Q: And the calcium (Sprague Dawley rats; males, combination with vancomycin, after 14-day recovery)?
A: minimal decrease

Q: What about the globulin (Sprague Dawley rats; males, combination with vancomycin, end of recovery period) of the same molecule?
A: minimal to mild decreases

Q: What about the fibrinogen (Sprague Dawley rats; males, combination with vancomycin, end of treatment, attributed to vancomycin) of the same molecule?
A: minimal increases

Q: What about the tolerability (Sprague Dawley rats; rat, IV QD 14 days, 0.1-10 mg/kg/day) of the same molecule?
A: well-tolerated

Q: What about the “body weight, body weight gains, food consumption changes” value (Sprague Dawley rats; rat, IV QD 14 days, alone or in combination with vancomycin) of the same molecule?
A: no body weight, body weight gains, or food consumption changes

Q: And the “no-observed-adverse-effect level (NOAEL)” value (Sprague Dawley rats; rat, IV QD 14 days, highest dose administered)?
A: 10 mg/kg/day

Q: What about the “accumulation following 14 daily doses” value ([1]; rat IV QD) of the same molecule?
A: No apparent accumulation

Q: What about the “sex difference in exposure” value ([1]; rat IV QD 1 mg/kg/day, males vs females) of the same molecule?
A: No sex difference

Q: What about the “dose proportionality of Cmax and AUCtau” value ([1]; rat IV QD 0.1-10 mg/kg/day) of the same molecule?
A: approximately dose-proportional

Q: What about the “AUC or Cmax when coadministered with vancomycin” value ([1]; rat IV, 1 + 110 mg/kg/day, compound 5: except Day 1, slightly greater Cmax and AUC) of the same molecule?
A: not impacted

Q: And the “Fold Induction (Enzyme Activity)” value (CYP 2B6)?
A: 0.0131

Q: What about the “Broth MIC” value (S. aureus NRS384) of the same molecule?
A: 3.91 nM

Q: What about the IC50 (CYP 2C8) of the same molecule?
A: 6.76 µM
